Test results: PubChem BioAssay (NCI)
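Compound exposure: 48 hours, 5 concentrations, 96-well plates. TGI denotes the concentration required for complete inhibition of growth.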

How the values were obtained:
Test in all cases: inhibition of tumour cell growth, NCI panel, 48 h
CAKI-1 renal = tested on: CAKI-1 renal
COLO 205 colon = tested on: COLO 205 colon
HCT-116 colon = tested on: HCT-116 colon
HCT-15 colon = tested on: HCT-15 colon
HL-60(TB) leukemia = tested on: HL-60(TB) leukemia
IGROV1 ovarian = tested on: IGROV1 ovarian
LOX IMVI melanoma = tested on: LOX IMVI melanoma
NCI-H226 lung = tested on: NCI-H226 lung
OVCAR-4 ovarian = tested on: OVCAR-4 ovarian
RXF 393 renal = tested on: RXF 393 renal
SK-MEL-2 melanoma = tested on: SK-MEL-2 melanoma
SK-MEL-28 melanoma = tested on: SK-MEL-28 melanoma
TK-10 renal = tested on: TK-10 renal
UACC-257 melanoma = tested on: UACC-257 melanoma
UACC-62 melanoma = tested on: UACC-62 melanoma
HS 578T breast = tested on: HS 578T breast
MDA-MB-231 breast = tested on: MDA-MB-231 breast
MDA-MB-435 = tested on: MDA-MB-435
NCI/ADR-RES ovarian = tested on: NCI/ADR-RES ovarian

SMILES | TGI (CAKI-1 renal) [µM] | TGI (COLO 205 colon) [µM] | TGI (HCT-116 colon) [µM] | TGI (HCT-15 colon) [µM] | TGI (HL-60(TB) leukemia) [µM] | TGI (IGROV1 ovarian) [µM] | TGI (LOX IMVI melanoma) [µM] | TGI (NCI-H226 lung) [µM] | TGI (OVCAR-4 ovarian) [µM] | TGI (RXF 393 renal) [µM] | TGI (SK-MEL-2 melanoma) [µM] | TGI (SK-MEL-28 melanoma) [µM] | TGI (TK-10 renal) [µM] | TGI (UACC-257 melanoma) [µM] | TGI (UACC-62 melanoma) [µM] | TGI (HS 578T breast) [µM] | TGI (MDA-MB-231 breast) [µM] | TGI (MDA-MB-435) [µM] | TGI (NCI/ADR-RES ovarian) [µM]
CCOc1ccc(/C(Cl)=C(\C=O)c2ccc(OC)c(OC)c2)cc1OCC | > 100 | > 100 | > 100 | > 100 | 62.7 | > 100 | > 100 | > 100 | > 100 | > 100 | > 100 | > 100 | > 100 | > 100 | > 100 | – | – | – | –
C=CCNC(=O)N(CCCC(NC(C)=O)C(=O)NCc1ccccc1)Cc1ccccc1 (configuration not stated) | > 100 | > 100 | – | > 100 | > 100 | > 100 | > 100 | > 100 | > 100 | > 100 | > 100 | > 100 | > 100 | > 100 | > 100 | – | – | – | –
CC1CN(c2ccc(Cl)cc2)CC(C)OC(=O)O1 (configuration not stated) | > 100 | > 100 | – | > 100 | > 100 | > 100 | > 100 | > 100 | > 100 | > 100 | > 100 | > 100 | > 100 | > 100 | > 100 | – | – | – | –
CCOC(=O)/C=C/n1c2ccccc2c(=O)c2ccccc21 | > 100 | > 100 | > 100 | > 100 | > 100 | > 100 | > 100 | > 100 | > 100 | > 100 | > 100 | > 100 | > 100 | > 100 | > 100 | – | – | – | –
COc1cc([C@@H]2c3cc4c(cc3[C@@H](OC(=O)c3ccc(N)cc3)C3COC(=O)[C@@H]32)OCO4)cc(OC)c1O (some centres not stated) | > 95 | 18.9 | > 95 | 56.1 | 22.2 | 17.3 | 50.7 | 33.6 | > 95 | > 95 | 59.6 | > 95 | 94.2 | > 95 | 19.5 | – | – | – | –
CN1c2ccccc2N(C(=O)c2ccc(Cl)cc2)C(CC(=O)O)c2cccn21 (configuration not stated) | > 100 | > 100 | – | > 100 | > 100 | > 100 | > 100 | > 100 | > 100 | > 100 | > 100 | > 100 | > 100 | > 100 | > 100 | – | – | – | –
COC(=O)/C(=N\NC(=O)C[N+](C)(C)C)C(C(=O)OC)C(=O)C(=O)Nc1ccccc1C(N)=O (configuration not stated) | > 100 | > 100 | > 100 | > 100 | > 100 | > 100 | > 100 | > 100 | > 100 | > 100 | > 100 | > 100 | > 100 | > 100 | > 100 | – | – | – | –
COc1ccc(N=Cc2ccc(N(CCC#N)S(=O)(=O)c3ccccc3)cc2)cc1 | > 100 | > 100 | > 100 | > 100 | > 100 | > 100 | > 100 | > 100 | > 100 | > 100 | > 100 | > 100 | > 100 | > 100 | > 100 | – | – | – | –
Nc1nc(SCc2ccc([N+](=O)[O-])cc2)nc2c1ncn2C1OC(CO)C(O)C1O (configuration not stated) | – | > 100 | > 100 | > 100 | > 100 | > 100 | > 100 | > 100 | > 100 | > 100 | – | > 100 | > 100 | > 100 | – | – | – | – | –
Cc1ccc([N+](=O)[O-])cc1NC(=O)/C(=N/NC(=S)NN)C1SC(=S)NC1=O (configuration not stated) | > 100 | > 100 | > 100 | > 100 | > 100 | > 100 | > 100 | > 100 | > 100 | > 100 | > 100 | > 100 | > 100 | > 100 | > 100 | – | – | – | –
CCN(CC)CCOc1ccc(CCc2cc(OC)c(OC)c(OC)c2)cc1 | > 100 | 31 | > 100 | > 100 | 44.4 | > 100 | 26.9 | > 100 | > 100 | 93.2 | – | > 100 | 88.9 | 69.9 | 66.3 | – | – | – | –
COc1ccc(-n2cnc3c2NC(C)(C)N=C3C(N)=O)c(OC)c1 | > 100 | > 100 | > 100 | > 100 | > 100 | > 100 | > 100 | > 100 | > 100 | > 100 | – | > 100 | > 100 | > 100 | > 100 | > 100 | > 100 | > 100 | > 100
N#C/C(c1nc2ccccc2[nH]1)=c1\s/c(=C/c2ccc(Cl)cc2)c(=O)n1-c1ccccc1 | > 100 | > 100 | > 100 | > 100 | > 100 | > 100 | > 100 | > 100 | > 100 | – | > 100 | > 100 | > 100 | > 100 | > 100 | – | – | – | –
CC(=O)NNc1nc(C)c(C(=O)/C=C/c2ccccc2Cl)s1 | > 100 | > 100 | – | > 100 | > 100 | > 100 | > 100 | > 100 | – | > 100 | > 100 | > 100 | > 100 | > 100 | > 100 | – | – | – | –
C=CCC(N(C)C(=O)[C@H](Cc1ccccc1)NC(=O)OCc1ccccc1)P(=O)(Oc1ccccc1)Oc1ccccc1 (some centres not stated) | – | > 100 | > 100 | – | > 100 | > 100 | > 100 | > 100 | – | > 100 | > 100 | > 100 | > 100 | > 100 | > 100 | – | – | – | –
CCC12CCCN(Cc3ccccc3)C1c1c(n(C)c3ccccc13)C(C(=O)OC)C2 (configuration not stated) | > 239 | > 239 | > 239 | > 239 | > 239 | > 239 | > 239 | > 239 | – | > 239 | > 239 | > 239 | > 239 | 191 | > 239 | – | – | – | –
O=C1c2ccccc2OP(=O)(OCC(F)(F)F)OC1(C(F)(F)F)C(F)(F)F (configuration not stated) | > 100 | > 100 | > 100 | > 100 | > 100 | > 100 | > 100 | > 100 | > 100 | > 100 | > 100 | > 100 | > 100 | > 100 | > 100 | – | – | – | –
COC(=O)C(C#CCCCCC#CC(NC(=O)OCc1ccccc1)(C(=O)OC)C(F)(F)F)(NC(=O)OCc1ccccc1)C(F)(F)F (configuration not stated) | > 100 | > 100 | > 100 | > 100 | > 100 | > 100 | > 100 | > 100 | > 100 | > 100 | – | > 100 | > 100 | > 100 | > 100 | – | – | – | –
C=CCOC(=O)NC1C(OC(C)[C@@H](NC(=O)OCc2ccccc2)C(=O)OC(C)(C)C)OC(COC(C)=O)C(OC(C)=O)C1OC(C)=O (some centres not stated) | > 100 | > 100 | > 100 | > 100 | > 100 | > 100 | > 100 | > 100 | > 100 | > 100 | – | > 100 | > 100 | > 100 | > 100 | > 100 | 96.2 | > 100 | > 100
O=S(Nc1ccccc1)c1cccc(Cl)c1 (configuration not stated) | > 100 | > 100 | > 100 | > 100 | > 100 | > 100 | > 100 | > 100 | – | > 100 | – | > 100 | > 100 | > 100 | – | > 100 | > 100 | > 100 | > 100
O=c1[nH]nc2ccccc2c1Cc1ccccc1 | > 100 | > 100 | > 100 | > 100 | – | > 100 | > 100 | > 100 | > 100 | – | > 100 | > 100 | > 100 | > 100 | > 100 | – | – | – | –
COC(=O)CC1NC(=O)[C@@H]1C(C)O (some centres not stated) | – | > 100 | > 100 | > 100 | > 100 | > 100 | > 100 | > 100 | > 100 | > 100 | > 100 | > 100 | > 100 | > 100 | > 100 | – | – | – | –
Clc1ccc(N=Nc2nc3ccccc3nc2N=Nc2ccc(Cl)cc2Cl)c(Cl)c1 | – | > 100 | > 100 | > 100 | 90 | > 100 | > 100 | > 100 | > 100 | > 100 | > 100 | > 100 | > 100 | > 100 | – | – | – | – | –
CCSc1n/c(=C\c2ccco2)c2nncn12 | – | > 100 | > 100 | > 100 | > 100 | > 100 | > 100 | > 100 | – | – | > 100 | > 100 | > 100 | – | > 100 | > 100 | > 100 | > 100 | > 100
